Measured values taken from patent US8455510B2.
Read-outs that look alike come from different tables or passages of the source.

Experiments:
[1] = test system: human osteosarcoma U2SO xenograft; assay: U2SO xenograft on nude mice; conditions: 1-5/3 w; for TV (mm^3) d0: baseline
[2] = test system: human rhabdomyosarcoma RH-30 xenograft; assay: RH-30 xenograft on nude mice; conditions: for TV (mm^3) d0: baseline;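 on all read-outs here: male BALB/cA nude mice with subcutaneous RH-30 tumors, oral dosing versus solvent-fed controls, caliper tumor volume, RTV relative to grouping day, T/C as treated RTV over control RTV ×100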
Text: Animals: BALB/cA nude mice, male, 40-45 days old, body weight: 21±2 g, provided by Shanghai Institute of Materia Medica, Chinese Academy of Sciences. License No.: SCXK (Shanghai) 2004-0002. Animal number in each group: 6 in negative control group, and 6 in administration group.
The amount of inoculated cells was 5×10^6. After the xenograft was formed by inoculation, it was used after passed for 3 generations in nude mice.

[3] = test system: normal mouse spleen T lymphocytes induced by ConA; assay: 3H-TdR incorporation, ConA-induced T lymphocyte proliferation; format: cell-based, BALB/c mice; conditions: read-out: IC50, proliferation of T lymphocytes induced by ConA
Method: ^3H-thymidine incorporation was adopted to measure the effect of the in vitro administered compound on the proliferation function of the spleen lymphocytes of normal mice induced by a mixed culture of mitogen/allogeneic mouse spleen lymphocytes, and evaluate the in vitro immunosuppressive activity of the compound.
Measurement of the effects of compounds on the proliferation function of mouse spleen lymphocytes induced by mitogen by ^3H-TdR incorporation: 100 μl cell suspension of mouse spleen lymphocytes was inoculated on a 96-well plate (4×10^5 per well), followed by addition of 50 μl of ConA (final concentration: 5 μg/ml), 50 μl of LPS (final concentration: […]) or 50 μl of compound at different concentrations. The total volume of each well was 200 μl. The test was carried out in triplicate wells for each concentration, and included control wells without ConA/LPS or the compound. After the 96-well plate was placed in an incubator at 37° C. with 5% CO2 for 48 hours, 25 μl of ^3H-thymidine (10 μCi/ml) was added in each well 8 hours before the end of incubation. […] The amount of ^3H-TdR incorporated in cell DNA was determined by a Beta cell counter (MicroBeta Trilux, PerkinElmer), and the cell proliferation was represented as a cpm value.

[4] = test system: DNFB-induced delayed type hypersensitivity reaction; assay: DNFB-induced delayed type hypersensitivity reaction in mice; format: in vivo, BALB/c mice; conditions: 1.5 mg/kg/d, intraperitoneal injection; model control 0.175 mm
Method: The delayed type hypersensitivity (DTH) reaction in mice was induced by DNFB to evaluate the inhibition effect of the compound on DTH in vivo. […] Preparation method: the compound was dissolved in anhydrous alcohol to prepare a stock solution (50 mg/ml), which was diluted to the desired concentration when use by using a solution of 5% PEG400, 5% Tween-80 in sterile water as a solvent. […] DNFB combined with dermal protein to form a complete antigen after sensitizing on feet of mice. One week later, mice were attacked by DNFB on ears to induce a local delayed allergic reaction, i.e., the delayed type hypersensitivity reaction to cause ear swelling, while the delayed type hypersensitivity reaction would not be observed on the ear which had not been attacked. Therefore, the ear swelling can reflect the level of the delayed type hypersensitivity reaction in mice induced by DNFB. (1) 20 μl of 0.5% DNFB solution in a mixture of acetone and olive oil (4:1) as a solvent was applied on both hind legs of mice for sensitization. […] (4) Thickness of the left and right ears of the mice was measured by a micrometer screw gauge, and the swelling was calculated by subtracting the thickness of the left ear from thickness of the right ear.

[5] = Immunosuppressive activity assay: cytotoxicity; format: cell-based
[6] = test system: SRBC-induced specific antibody-producing cells in spleen lymphocytes; assay: Quantitative hemolysis of sheep red blood cells (QHS) assay; format: in vivo, BALB/c mice; conditions: 1.5 mg/kg, intraperitoneal injection; for Quantitative hemolysis OD Value: model control 0.3887, normal control 0.3036
Text: It is a classic experimental method to determine the generation of antigen-specific antibody with SRBC hemolytic reaction in SRBC-induced mouse humoral immunity model. The quantitative hemolysis of sheep red blood cells (QHS) assay is an experimental method for evaluating the amount of the antibody secreted, which is based on the principle that the sheep red blood cells are hemolyzed by the anti-SRBC specific antibody secreted by B lymphocytes (plasma cells) to release haemoglobin. After mice are sensitized by sheep red blood cells (SRBC), there will appear cells which can secrete specific antibody in mouse spleen lymphocytes. The Antibody secreted by such cells could hemolyze SRBC with the synergistic action of the complement. Therefore, the amount of the cells secreting the specific antibody can be evaluated by determining the hemolytic degree by spectrophotometry. […] BALB/c mice were randomly divided into 5 groups with 6 mice in each group. […] When immunized, the mice in each group were administered by intraperitoneal injection once daily until 5 days after the immunization. The mice in model control group were administered daily with the solvent. 2. […] Each mice was introperitoneally injected with 0.2 ml of the diluted SRBC for sensitizing. 3. QHS assay was carried out 5 days after the sensitization: The mouse spleen was collected to produce the spleen lymphocytes. […] The mixture was kept at 37° C. for 1 hour, and then centrifugated at 3000 rpm for 10 min. […] The quantitative hemolysis of sheep red blood cells (QHS) assay uses the amount of haemoglobin (OD value) released from the hemolysis of red blood cells by the antibody secreted by B cells to indicate the level of humoral immunity in body. Inhibition of specific antibody-secreting cells %=(OD of model control group-OD of administration group)/(OD of model control group-OD of normal control group)

[7] = Table 10, read-out: Cytotoxicity CC50
[8] = Table 2, 5 mg/kg p.o, 1-5 × 3 w
[9] = Table 2, 10 mg/kg p.o, 1-5 × 3 w

SMILES | Body Weight (g) end ([1]; Table 5, oral 2.5 mg/kg) | Body Weight (g) start ([1]; Table 5, oral 2.5 mg/kg) | RTV ([1]; Table 5, oral 2.5 mg/kg) | T/C (%) ([1]; Table 5, oral 2.5 mg/kg) | TV (mm^3) d21 ([1]; Table 5, oral 2.5 mg/kg) | TV (mm^3) d0 ([1]; Table 5, oral 2.5 mg/kg) | Body Weight (g) end ([1]; Table 5, oral 5 mg/kg) | Body Weight (g) start ([1]; Table 5, oral 5 mg/kg) | RTV ([1]; Table 5, oral 5 mg/kg) | T/C (%) ([1]; Table 5, oral 5 mg/kg) | TV (mm^3) d0 ([1]; Table 5, oral 5 mg/kg) | Body Weight (g) end ([2]; Table 4, 2.5 mg/kg po, 1-5/2 w) | Body Weight (g) start ([2]; Table 4, 2.5 mg/kg po, 1-5/2 w) | RTV ([2]; Table 4, 2.5 mg/kg po, 1-5/2 w) | T/C (%) ([2]; Table 4, 2.5 mg/kg po, 1-5/2 w) | TV (mm^3) d14 ([2]; Table 4, 2.5 mg/kg po, 1-5/2 w) | TV (mm^3) d0 ([2]; Table 4, 2.5 mg/kg po, 1-5/2 w) | Body Weight (g) end ([2]; Table 4, 5 mg/kg po, 1-5/2 w) | Body Weight (g) start ([2]; Table 4, 5 mg/kg po, 1-5/2 w) | RTV ([2]; Table 4, 5 mg/kg po, 1-5/2 w) | also measured
CO[C@H]1C[C@@H]2CC[C@@H](C)[C@@](O)(O2)C(=O)C(=O)N2CCCC[C@H]2C(=O)O[C@H]([C@H](C)C[C@@H]2CC[C@@H](OC(=O)OCC(O)CO)[C@H](OC)C2)CC(=O)[C@H](C)/C=C(\C)[C@@H](O)[C@@H](OC)C(=O)[C@H](C)C[C@H](C)/C=C/C=C/C=C/1C (stereo partly shown) [Y31] | 20.2 g | 18.5 g | 12 ± 6.7 | 49.0% | 975 ± 235 mm^3 | 90 ± 27 mm^3 | 19.5 g | 17.7 g | 11 ± 7.2 | 44.0% | 89 ± 19 mm^3 | 21.2 g | 19.2 g | 1.6 ± 0.6 | 37.1% | 259 ± 130 mm^3 | 159 ± 36 mm^3 | 21.7 g | 20.8 g | 2.0 ± 0.5 | TV (mm^3) d21 ([1]; Table 5, oral 5 mg/kg): 967 ± 234 mm^3; T/C (%) ([2]; Table 4, 5 mg/kg po, 1-5/2 w): 45.5%; TV (mm^3) d14 ([2]; Table 4, 5 mg/kg po, 1-5/2 w): 316 ± 153 mm^3; TV (mm^3) d0 ([2]; Table 4, 5 mg/kg po, 1-5/2 w): 160 ± 53 mm^3; IC50 ([3]; ConA 5 μg/ml, 48 hours, 3H-TdR): 331 nM; average ear swelling degree [4]: 0.129 mm; Safety Index CC50/IC50 ([5]; Table 10): 1860.0; CC50 [5, 7]: 93 µM; Inhibition of Specific Antibody-secreting cells % [6]: 93.03%; Quantitative hemolysis OD Value [6]: 0.3095
CO[C@H]1C[C@@H]2CC[C@@H](C)[C@@](O)(O2)C(=O)C(=O)N2CCCC[C@H]2C(=O)O[C@H]([C@H](C)C[C@@H]2CC[C@@H](O)[C@H](OC)C2)CC(=O)[C@H](C)/C=C(\C)[C@@H](O)[C@@H](OC)C(=O)[C@H](C)C[C@H](C)/C=C/C=C/C=C/1C [Rapamycin] | 18.5 g | 19.7 g | 15 ± 5.1 | 60.0% | 1230 ± 344 mm^3 | 85 ± 24 mm^3 | 17.5 g | 19.5 g | 15 ± 3.4 | 59.0% | 86 ± 20 mm^3 | 21.8 g | 20.2 g | 2.8 ± 0.8 | 63.7% | 440 ± 157 mm^3 | 164 ± 67 mm^3 | 20.3 g | 19.8 g | 2.4 ± 1.0 | Body Weight (g) end [2, 8]: 27.0 g; Body Weight (g) start [2, 8]: 23.7 g; RTV [2, 8]: 5.5 ± 1.8; T/C (%) [2, 8]: 61.8%; TV (mm^3) d21 [2, 8]: 650 ± 326 mm^3; TV (mm^3) d0 [2, 8]: 124 ± 65 mm^3; Body Weight (g) end [2, 9]: 25.7 g; Body Weight (g) start [2, 9]: 23.3 g; RTV [2, 9]: 3.1 ± 0.7; T/C (%) [2, 9]: 35.7%; TV (mm^3) d0 [2, 9]: 136 ± 57 mm^3; T/C (%) ([2]; Table 4, 5 mg/kg po, 1-5/2 w): 54.4%; TV (mm^3) d14 ([2]; Table 4, 5 mg/kg po, 1-5/2 w): 362 ± 100 mm^3; TV (mm^3) d0 ([2]; Table 4, 5 mg/kg po, 1-5/2 w): 159 ± 32 mm^3; IC50 [3]: 196 nM; average ear swelling degree [4]: 0.076 mm; CC50 ([5]; Table 10, value beyond the >100 μM bound, read-out: Cytotoxicity CC50, value in brackets): 3600 µM; CC50 [5, 7]: > 100 µM; Inhibition of Specific Antibody-secreting cells % [6]: 100%; Quantitative hemolysis OD Value [6]: 0.3012
